Data published in PubChem BioAssay AID179 (DTP/NCI, 2004).
The source made the active and inactive calls.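 How the source made its calls: active means compounds giving half or more protection of infected cells from virus-caused growth loss, again on retest; inactive means the rest.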

Tested on: CEM cells HIV-1 protection, formazan growth assay
Test: NCI AIDS Antiviral Assay
Details: for IC50: measured here: growth of uninfected CEM cells
Procedure, shortened: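 Human CEM cells, uninfected and HIV-1-infected, exposed to five drug concentrations; growth measured by soluble formazan assay and scored as percent protection from infection, with protecting compounds retested.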

| Compound | EC50 | IC50 | outcome |
| --- | --- | --- | --- |
| CCCCN[C@H]1C2C3CC4C5CC(C42)C1(C)C53 (stereo not given in full) | > 933 µM | 380 µM | – |
| CC1=CC(=O)/C(=C/N2C(=O)CNC2=S)C(=O)O1 | > 200 µM | > 200 µM | – |
| Cc1c(N2C(=O)/C(=C/c3ccc(N(CCC#N)CCC#N)cc3)N=C2c2ccccc2)c(=O)n(-c2ccccc2)n1C | > 200 µM | 186 µM | – |
| CC(NC(=O)C(CC(=O)OCc1ccccc1)NC(=O)OCc1ccccc1)c1ccccc1 (stereo not given) | > 200 µM | > 200 µM | – |
| CCOC(=O)C(N)CSSCC(N)C(=O)OCC (stereo not given) | > 200 µM | > 200 µM | – |
| O=c1[nH]nc(Cc2ccccc2)n1C1CC1 | > 200 µM | > 200 µM | – |
| CC(C)OC(=O)c1cc(NC(=O)C(C)(C)C)c(F)cc1Cl | – | – | inactive |
| CC(=O)O[C@@H]1[C@H]2O[C@H]2[C@H]2O[C@@]2(COC(=O)c2ccccc2)[C@H]1OC(C)=O | > 200 µM | 91.2 µM | – |
| S=c1nn[nH]c2ccccc12 | > 219 µM | > 219 µM | – |
| CC1(C)CC(=O)C2=C(C1)Nc1ccc(Cl)cc1NC2c1cccc([N+](=O)[O-])c1 (stereo not given) | > 200 µM | 102 µM | – |
| CCCCOC(=O)N(CCCC)c1ccccc1 | > 200 µM | 151 µM | – |
| CCOC(=O)Nc1nn(-c2ccc3ccccc3n2)c(=O)[nH]1 | > 63.1 µM | 10 µM | – |
| CC(C)(C)OC(=O)/N=C/c1c(O)c2ccccc2oc1=O | > 200 µM | 30.2 µM | – |
| Cc1cccc(/C=C2\CCCc3ccccc3C2=O)c1 | > 200 µM | 11.2 µM | – |
| CSc1ncnc2c1ncn2CCC(=O)O | > 200 µM | > 200 µM | – |
| COc1ccc(CCNc2ccc(NCCc3ccc(OC)c(OC)c3)c3c2C(=O)c2ccccc2C3=O)cc1OC | – | – | inactive |
| C=C1C(=O)O[C@@H]2C1C(OC(C)CCC)[C@@H](O)[C@@H](C)C(O)C1O[C@]1(C)[C@H]2O (stereo not given in full) | – | – | inactive |
| CCOC(=O)NC(=S)NN(C)C1=NCC(C)(C)S1 | > 200 µM | > 200 µM | – |
| CC(C)CCCC(C)[C@H]1CCC2[C@@H]1CC[C@@H]1[C@@]3(C)CC[C@H](CCC=C(c4cc(Cl)c(OCC(=O)O)c(C(=O)O)c4)c4cc(Cl)c(OCC(=O)O)c(C(=O)O)c4)C[C@@H]3CC[C@@]21C (stereo not given in full) | > 200 µM | 1.7 µM | – |
| CCCCC(CC)COC(=O)CC(C(=O)OCC(CC)CCCC)S(=O)(=O)O (stereo not given) (tested in a mixture with another compound) | > 200 µM | > 200 µM | – |
| CC(=O)OC1CCC2(C)C(C1)CC(OC(C)=O)C1C2CC(OC(C)=O)C2(C)C(C(C)CC(=O)C(=O)c3ccccc3)CCC12 (stereo not given) | > 6.17 µM | 2.63 µM | – |

| Compound | EC50 | IC50 | outcome |
| --- | --- | --- | --- |
| O=c1[nH]c2ccccc2c2oc3ccccc3c12 | > 200 µM | > 200 µM | – |
| O=c1c2cccc3cccc(c4oc5c6cccc7cccc(c(=O)c5c14)c76)c32 | – | – | inactive |
| CC1C(c2ccc3c(c2)OCO3)CC(Cl)CC12C=C1OCOC1=CC2=O (stereo not given) | > 69.2 µM | 47.9 µM | – |
| O=C(O)c1c(-c2ccccc2)nn2c1ccc1ccccc12 | > 200 µM | > 100 µM | – |
| CC(C)N(C(=O)C12C3(C(=O)OC(C)(C)C)C4C5(C#N)C3C1(C(=O)OC(C)(C)C)C5C42C(=O)OC(C)(C)C)C(C)C (stereo not given) | > 200 µM | 23.4 µM | – |
| CC(=O)N1C(=O)c2cc3ccccc3cc21 | > 200 µM | > 100 µM | – |
| [O-][n+]1onc2ncccc21 | > 138 µM | 19.5 µM | – |
| O=C(O)Cc1cc(=O)oc2c1ccc1ccccc12 | > 200 µM | 135 µM | – |
| CN1CCN(c2ccc3nc(-c4ccc5nc(-c6ccc(O)cc6)[nH]c5c4)[nH]c3c2)CC1 | > 501 µM | 3.89 µM | – |
| Cc1c(C(=O)Nc2ccc(Cl)c(C(F)(F)F)c2)oc2cc(O)ccc2/c1=N\NC(N)=S | > 525 µM | 112 µM | – |
| COc1cc2c(cc1OC)C1(c3ccc(Cl)cc3)ON=C(c3ccccc3)N1CS2 (stereo not given) | > 6.17 µM | > 6.17 µM | – |
| Cc1cc2nn(C3CCCCO3)nc2cc1C (stereo not given) | > 200 µM | > 200 µM | – |
| CC(=O)O[C@@H]1CCN(Cc2ccccc2)C[C@@H]1CN(C(C)=O)C12CC3CC(CC(C3)C1)C2 | > 8.51 µM | 8.32 µM | – |
| COCCCC(=O)NC(c1ccccc1)(c1ccccc1)c1ccccc1 | > 200 µM | > 200 µM | – |
| O=C1CCS(=O)(=O)O1 | > 1820 µM | > 1820 µM | – |
| C(=C/c1nnnn1-c1ccccc1)/Nc1ccccc1 | > 200 µM | 26.3 µM | – |
| CC(C)N(C(C)C)P(OCCC#N)OC1CC(n2cnc3c(=O)[nH]cnc32)OC1COC(=O)NCCCCCCNC(=O)OC(C)(C)c1ccc(-c2ccccc2)cc1 (stereo not given) | > 8.71 µM | > 8.71 µM | – |
| c1ccc(C(=C2C3CCC2C2CSCC32)c2ccccc2)cc1 (stereo not given) | > 93.3 µM | 46.8 µM | – |
| N#CCCN(CCC#N)c1ccc(/C=C2\CC(O)(c3ccccc3)N(c3ccc(Cl)cc3)C2=O)cc1 (stereo not given) | > 5.5 µM | > 5.5 µM | – |
| CC(C)(C)NNC(=O)/C(=C/c1ccc(Oc2ccc(Cl)c(Cl)c2)cc1)NC(=O)c1ccccc1 | > 5.5 µM | > 5.5 µM | – |
| O=S(=O)([O-])C(F)(F)F.[Ru+2].[Ru+2].c1ccc2c(c1)Cc1ccccc1-2 | > 100 µM | > 100 µM | – |
